This is an account of results in US11174243B2, “Succinate forms and compositions of Bruton's tyrosine kinase inhibitors” (Sunesis Pharmaceuticals, Inc., priority 2016, dated 2021).

Values after ≈ are worked out from the molar mass of the structure shown.

One data set can be described thus: Single-dose PK in monkey. It counts as in vivo. The note with it: male, cynomolgus monkey, plasma. As to the method: A series of single-dose PK studies were conducted in rat, dog, and monkey to investigate the plasma PK of Compound 2 following single oral and single intravenous (IV) administration of Compound 2.
The PK of Compound 2 was studied in the male cynomolgus monkey (n=3) following single IV administration of Compound 2 at 1 mg/kg and single oral administration at 5 mg/kg (DRN105-0042). Following each administration, serial blood samples were collected at 0.08, 0.25, 0.5, 1, 2, 4, 7, 16, and 24 hours postdose.

The nature of data set [1]: Solubility of Compound 2 in solvent systems (slurries, HPLC). It counts as physicochemical. The note with it: thermodynamic from solid, after one day at 20° C. As to the method:
Slurries were set up in the solvents reported in Table 1 by weighing approximately 200 mg of Compound 2, suspending the solid in 0.5 mL of solvent and checking that excess solid remained un-dissolved. The prepared samples were also used to calculate Compound 2 solubility in the solvent systems used.
The slurries prepared for the long term slurry experiments were sampled after one day at 20° C. to measure the solubility of Compound 2 in the solvent systems used. The solubility data were obtained by HPLC with respect to a response factor; six samples of Compound 2, dissolved in acetonitrile/methanol 40/60 at known concentration, were prepared and injected in HPLC. The resulting HPLC areas were used to calculate the HPLC response factor for Compound 2 (data not shown).

The next data set has as its system primary CLL B cells. As to the kind of experiment: Viability of primary patient CLL cells (Annexin V and propidium iodide flow cytometry). It counts as cell-based. The note with it: Homo sapiens, B-cell, 48 hours, read-out: viability, that of the untreated condition. On the procedure: (§1) Methods: Primary CLL B cells were isolated from the whole blood of consented patients by FICOLL density centrifugation and rosette-sep negative selection. Annexin V and propidium iodide flow cytometry was used to measure patient CLL cell viability and 7AAD was used to measure viability in stromal co-culture. CD40 and CD86 expression was evaluated via flow cytometry subsequent to sustained 3.2 μM CpG stimulation. BCR signaling in primary CLL cells was investigated by immunoblot succeeding 1 hour treatment and following 1 hour or 24 hours of incubation with Compound 1 in XLA cell lines. MTS values were read after 24 hours of drug incubation. ITK inhibition was investigated via immunoblot after stimulation with anti-CD3 and anti-CD28 and incubation with Compound 1 for 1 hour. Compound 1 was used at a concentration of 1 μM in preclinical studies unless otherwise noted.

For data set [2], the system named is primary CLL cells in the presence of HS5 stromal protection. The experiment in a line: Viability of primary CLL cells in stromal co-culture (7AAD). It counts as cell-based. The note with it: Homo sapiens, CLL cell, 48 hours, read-out: decrease of viability. As to the method:
as §1

Another data set has as its target T1, BMX (Homo sapiens, UniProt P51813).
T1 sequence (P51813 1-675): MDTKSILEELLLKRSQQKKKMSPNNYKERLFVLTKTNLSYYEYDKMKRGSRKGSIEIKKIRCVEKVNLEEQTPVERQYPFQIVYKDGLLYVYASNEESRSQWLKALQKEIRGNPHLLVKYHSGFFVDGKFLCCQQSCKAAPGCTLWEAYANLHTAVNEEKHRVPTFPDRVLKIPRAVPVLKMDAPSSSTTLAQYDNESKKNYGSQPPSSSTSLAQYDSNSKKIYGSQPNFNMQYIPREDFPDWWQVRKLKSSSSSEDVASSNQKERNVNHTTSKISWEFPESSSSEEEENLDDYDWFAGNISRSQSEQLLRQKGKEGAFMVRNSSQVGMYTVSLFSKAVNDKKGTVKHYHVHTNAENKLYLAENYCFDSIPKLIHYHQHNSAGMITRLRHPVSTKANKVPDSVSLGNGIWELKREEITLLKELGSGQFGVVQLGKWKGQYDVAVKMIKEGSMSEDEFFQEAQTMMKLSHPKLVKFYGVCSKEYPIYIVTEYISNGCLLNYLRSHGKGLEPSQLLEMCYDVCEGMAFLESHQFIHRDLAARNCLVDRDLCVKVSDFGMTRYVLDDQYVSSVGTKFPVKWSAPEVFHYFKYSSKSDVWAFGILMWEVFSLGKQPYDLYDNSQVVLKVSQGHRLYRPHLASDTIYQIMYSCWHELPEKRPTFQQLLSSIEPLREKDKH
The experiment in a line: Kinase selectivity, BMX (Kd).

For a further data set, the target named is T2, BTK (Homo sapiens, UniProt Q06187).
T2 construct: from tissue; host or cells: human whole blood
As to the kind of experiment: Phase 1a single-dose study in humans: BTK inhibition (pBTK) in whole blood. It counts as in vivo. As to the method: The primary endpoint of safety was assessed by monitoring adverse events (AEs), laboratory abnormalities, and cardiac findings (ECG). Secondary endpoints included evaluation of the PK parameters of area under the plasma concentration-time curve (AUC), maximum plasma concentration (Cmax), time of maximum concentration (Tmax), apparent volume of distribution (Vd/F), terminal elimination half-life (t1/2), terminal elimination rate constant (λz), and apparent clearance (Cl/F) as well as the PD parameter of BTK inhibition in whole blood. BTK inhibition was calculated based on phosphorylated BTK (pBTK) and total BTK (totBTK). All postdose blood samples and one predose sample were lysed in the presence of protease and phosphatase inhibitors (PPi); a second predose sample was lysed without PPi to estimate maximum reduction in pBTK attainable. The ratio of predose pBTK/totBTK without PPi was subtracted from each pBTK/totBTK with PPi, and % pBTK vs predose was calculated: […]

[3] abbreviates: 1 mg/kg, IV, dose 1, 70% PEG400/H2O, free base measured.
The mark [4] stands for this setting: 5 mg/kg, PO, dose 5, 0.1% CMC/0.2% Tween, free base measured.

T2 sequence (Q06187 whole entry): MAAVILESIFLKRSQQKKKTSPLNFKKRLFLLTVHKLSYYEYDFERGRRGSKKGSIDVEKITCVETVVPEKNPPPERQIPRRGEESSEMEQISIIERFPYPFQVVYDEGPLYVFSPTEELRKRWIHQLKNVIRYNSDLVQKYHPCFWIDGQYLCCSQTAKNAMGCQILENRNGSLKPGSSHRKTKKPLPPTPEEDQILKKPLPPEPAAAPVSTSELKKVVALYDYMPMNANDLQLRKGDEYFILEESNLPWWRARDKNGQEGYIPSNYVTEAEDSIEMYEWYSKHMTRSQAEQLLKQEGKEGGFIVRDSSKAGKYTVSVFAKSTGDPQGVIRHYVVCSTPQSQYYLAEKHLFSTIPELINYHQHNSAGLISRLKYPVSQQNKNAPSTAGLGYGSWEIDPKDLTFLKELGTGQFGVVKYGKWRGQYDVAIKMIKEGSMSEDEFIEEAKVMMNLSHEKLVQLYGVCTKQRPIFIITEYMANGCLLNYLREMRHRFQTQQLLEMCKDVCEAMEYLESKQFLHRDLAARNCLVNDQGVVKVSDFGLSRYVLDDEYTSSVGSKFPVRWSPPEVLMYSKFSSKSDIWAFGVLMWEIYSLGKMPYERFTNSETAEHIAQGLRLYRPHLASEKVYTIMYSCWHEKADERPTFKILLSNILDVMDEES

`NC(=O)[C@H]1CCN(c2ncnc(N)c2F)C[C@@H]1N1CCC[C@@H](Nc2cc(Cl)cc(C(F)(F)F)c2)C1=O` [Compound 2]: the AUC(0-inf) was 1920 ng·h/mL in the data set “Single-dose PK in monkey” (setting [3]) and 3220 ng·h/mL in the data set “Single-dose PK in monkey” (setting [4]). This compound gave a C0 in “Single-dose PK in monkey” (setting [3]) of 1600 ng/mL. This compound also showed a half-life in “Single-dose PK in monkey” (setting [3]) of 114 min. The peak level in “Single-dose PK in monkey” (setting [4]) (Cmax) was 1400 ng/mL. Also, in the data set “Single-dose PK in monkey” (setting [4]), the Tmax was found to be 1.5 h. Also, the bioavailability in the data set “Single-dose PK in monkey” (5 mg/kg, PO, dose 5, 0.1% CMC/0.2% Tween, read-out: % F (oral bioavailability)) turned out to be 33%. For the same compound, the solubility at 1 day in data set [1] (organic solvent or mixture, 1,4-dioxane) stood at 22 mg/mL (≈ 41.5 mM); in data set [1] (organic solvent or mixture, 2-propanol/water 90/10), 41 mg/mL (≈ 77.4 mM); in data set [1] (organic solvent or mixture, 2-propanol) it was 11 mg/mL (≈ 20.8 mM); in data set [1] (organic solvent or mixture, Acetone), 11 mg/mL (≈ 20.8 mM); in data set [1] (organic solvent or mixture, Cyclohexanone) it was 16 mg/mL (≈ 30.2 mM); in data set [1] (organic solvent or mixture, Ethanol/water 90/10) it was 49 mg/mL (≈ 92.5 mM). In addition, the solubility at 1 day in data set [1] (organic solvent or mixture, Ethanol) came out at 21 mg/mL (≈ 39.6 mM); in data set [1] (organic solvent or mixture, Ethyl acetate), 2 mg/mL (≈ 3.77 mM); in data set [1] (organic solvent or mixture, Isopropyl acetate) it was 1 mg/mL (≈ 1.89 mM); in data set [1] (organic solvent or mixture, Methanol/water 90/10), 100 mg/mL (≈ 189 mM); in data set [1] (organic solvent or mixture, Methanol), 103 mg/mL (≈ 194 mM); in data set [1] (organic solvent or mixture, Tert-butylmethyl ether), 1 mg/mL (≈ 1.89 mM). Also, the solubility at 1 day in data set [1] (Water) worked out at 1 mg/mL (≈ 1.89 mM).

Turning to `NC(=O)[C@H]1CCN(c2ncnc(N)c2F)C[C@@H]1N1CCC[C@@H](Nc2cc(Cl)cc(C(F)(F)F)c2)C1=O` [Compound 1, (3R,3′R,4′S)-1′-(6-amino-5-fluoropyrimidin-4-yl)-3-((3-chloro-5-(trifluoromethyl)phenyl)amino)-2-oxo-[1,3′-bipiperidine]-4′-carboxamide], the viability at 0.1 µM in the data set on primary CLL B cells (0.1 μM) amounted to 96.7%. In addition, the viability at 1 µM with primary CLL B cells (1.0 μM) is 96.1%. Also, in the data set on primary CLL B cells (10.0 μM), the viability at 10 µM stood at 88.1%. Moreover, in data set [2], the cytotoxicity at 1 µM is 5.5%. Also, the Kd on BMX is no less than 200 nM. Further, at BTK (Compound 1 plasma concentrations lower or close to 100 ng/mL), the “% BTK inhibition” value is reported as no more than 75%. In addition, the “inhibition of pBTK” value on BTK (Compound 1 plasma concentrations ≥200 ng/mL) is listed as no less than 85%; at BTK (all dose levels, rapid, profound and prolonged, FIG. 13), roughly 100%. Further, at BTK (plasma concentrations above 1000 ng/mL, most of the subjects, largely around 100%), the “inhibition (pBTK)” value is on record as greater than 85%.
